# Test results: patent publication US20250345318A1, “COMPOUND AND USE THEREOF IN PREVENTING OR TREATING RADIATION DAMAGE” (SIMCERE PHARMACEUTICAL CO., LTD., priority 2022, published 2025)
# Tests used:
# JWA^IEC-wt mice = assay: X-ray-induced intestinal injury in JWA^IEC-wt mice (Example 12); format: in vivo; conditions: ABI 10 Gy
# Source text: The Model Animal Research Institute of Nanjing University was commissioned to conduct the construction of JWA^flox/+ A129 mice and embryo cryopreservation, preservation, and thawing. These mice were bred with wild-type C57/BL6 mice for over six generations to give mice of C57/BL6 background. Villin-cre mice, provided by Shanghai Model Organisms Center, Inc., were C57/BL6 mice. The JWA-knockout mice (JWA^ko) and their littermate control (JWA^wt) counterparts were derived from an in-house conservation breed. The JWA^flox/flox mice were bred from the JWA^flox/+ mice. The intestinal epithelial JWA-knockout mice (JWA^IEC-ko) and control group (JWA^IEC-wt) were obtained through breeding JWA^flex/flex mice with Villin-cre mice.
# The off-target model was established using JWA^IEC-ko mice and their JWA^IEC-wt littermates (8 weeks old), and the mice receiving radiation were divided into 4 groups: (1) a JWA^IEC-wt mice+vehicle group (n=5); (2) a JWA^IEC-wt mice+JAC4 group (n=5); (3) a JWA^IEC-ko mice+vehicle group (n=6); (4) a JWA^IEC-ko mice+JAC4 group (n=5). All mice were subjected to abdominal irradiation at 10 Gy. 7 days before radiation, 10 mg/kg JAC4 or an equal volume of vehicle (polyethylene glycol:ethanol:physiological saline=40:7.5:52.5, v/v/v) was administered intragastrically daily until the end of modeling. The blank control group (wild type, n=6) was not irradiated, and the modeling was terminated on day 4 after radiation.
# To verify whether the protective effect of JAC4 on X-ray radiation-induced intestinal damage in mice is dependent on the expression of JWA, the present disclosure verified the targeting effect of JAC4 using JWA^IEC-ko mice.
# JWA^IEC-ko and JWA^IEC-wt mice were treated daily with JAC4 (10 mg/kg) or an equal volume of vehicle (polyethylene glycol:ethanol:physiological saline=47.5:7.5:50, v/v/v), respectively, from 7 days before the ABI (10 Gy) exposure to 4 days after the exposure. […] Meanwhile, the contents of TNF-α and IL-1β were consistent with the results of FD4. […] As shown in panels E and F, ABI increased the activity of GSH-Px (530.8±207.8 vs. 406.2±197.9 U/mL) and decreased the activity of CAT (89.4 f 0.4 vs. 68.7±14.2 U/mL). JAC4 further enhanced the antioxidant enzymes in JWA^IEC-wt mice (815.1±203.9 vs. 530.8±207.8 U/mL and 85.9±8.2 vs. 68.7±14.2 U/mL; P<0.05, P<0.05). […] Intestinal tissues were isolated, and the expression of apoptotic molecules was detected by Western blot (FIG. 16J). In wild-type mice, compared with the control group, X-rays increased the expression of Bax and cleaved PARP1 in the small intestine.
# C57BL/6 male mice = assay: Body weight, spleen and thymus indexes and HE staining after total body irradiation (Example 3); format: in vivo
# Experimental: C57BL/6 male mice (24.8±1,6 g in body weight) aged 10 weeks were divided into 4 groups of 8 mice each. After acclimating to the environment, JAC4 (100 mg/kg) or an equal volume of vehicle (polyethylene glycol:ethanol:physiological saline=47.5:7.5:50, v/v/v) was orally administered to the mice once daily for 7 consecutive days. After that, the mice in one JAC4 treatment group and one vehicle group were subjected to total body X-ray irradiation (6 Gy) and JAC4 or vehicle treatment was continued. After 3 days, the administration of JAC4 or vehicle was discontinued, and blood samples, small intestine tissues, and thymus and spleen tissues were collected 4 days later.
# HE staining was performed on spleen tissues and thymus tissues from mice in all groups, with procedures as follows:
# (1) Section deparaffinization: 1) xylene I treatment for 5 min; 2) xylene II treatment for 5 min; 3) xylene III treatment for 5 min; 4) 100% ethanol treatment for 5 min; 5) 100% ethanol II treatment for 5 min; 6) 95% ethanol treatment for 5 min; 7) 90% ethanol treatment for 5 min; 8) 85% ethanol treatment for 5 min; 9) 70% ethanol treatment for 5 min; 10) 60% ethanol treatment for 5 min.
# (2) HE staining: After being rinsed with double-distilled water, the sections were stained with hematoxylin solution for 6 min, differentiated with 0.5% hydrochloric acid in alcohol for a short period, and then placed in double-distilled water for bluing. When the chromatin within the cell nuclei was clearly visible under a microscope, the sections were stained with 0.5% eosin for 30 s.
# [1] = JWA^IEC-wt mice, JAC4 10 mg/kg daily
# [2] = JAC4 100 mg/kg oral + TBI 6 Gy vs vehicle + radiation
# [3] = non-radiation, JAC4 100 mg/kg oral
structure (smiles),measurement,setting,value
c1ccc(CSc2nnc(C3COc4ccccc4O3)o2)nc1 (stereo not shown) [JAC4],plasma CAT activity,JWA^IEC-wt mice; [1],85.9±8.2 U/mL
same,plasma GSH-Px activity,JWA^IEC-wt mice; [1],815.1±203.9 U/mL
same,plasma IL-1β,JWA^IEC-wt mice; [1],57.76 ± 5.9 ng/mL
same,plasma TNF-α,JWA^IEC-wt mice; [1],583.2 ± 78.2 ng/mL
same,plasma FD4 content,"JWA^IEC-wt mice; JWA^IEC-wt mice, JAC4 10 mg/kg daily, day 4",6719.9 ± 1823.5 ng/mL
same,expression of Bax and cleaved PARP1 in small intestine (Western blot),"JWA^IEC-wt mice; wild-type mice, JAC4 10 mg/kg",downregulated
same,spleen index,C57BL/6 male mice; JAC4 100 mg/kg oral + TBI 6 Gy,1.31 ± 0.18 mg/g
same,thymus index,C57BL/6 male mice; JAC4 100 mg/kg oral + TBI 6 Gy,1.63 ± 0.24 mg/g
same,HE staining of spleen tissue after X-ray radiation,C57BL/6 male mice; [2],no significant difference between the vehicle control group and the JAC4 group
same,HE staining of thymus tissue after X-ray radiation,C57BL/6 male mice; [2],no significant difference between the vehicle control group and the JAC4 group
same,degree of body weight loss,"C57BL/6 male mice; JAC4 100 mg/kg oral, TBI 6 Gy",significantly less than that in the control group
same,spleen index,C57BL/6 male mice; [3],3.22 ± 0.26 mg/g
same,thymus index,C57BL/6 male mice; [3],2.51 ± 0.43 mg/g
